Measured values taken from US20050112742A1, “High temperature and alkaline stable catalase” (priority 2003, published 2005).
Entries after “also recorded” stand apart in the source; their conditions may differ.

What was measured:
[1] = target: T1, Thermus brockianus catalase (SEQ ID NO:2, SEQ ID NO:5) (Thermus brockianus, UniProt A0ABM7XHT8); test: Peroxidase activity with peroxidase substrates; type: biochemical; details: hydrogen peroxide 1 mM, 20 mM Tris pH 8.0, 70° C.
T1 construct: in solution and immobilized on Eupergit C
T1 sequence (A0ABM7XHT8 6-291): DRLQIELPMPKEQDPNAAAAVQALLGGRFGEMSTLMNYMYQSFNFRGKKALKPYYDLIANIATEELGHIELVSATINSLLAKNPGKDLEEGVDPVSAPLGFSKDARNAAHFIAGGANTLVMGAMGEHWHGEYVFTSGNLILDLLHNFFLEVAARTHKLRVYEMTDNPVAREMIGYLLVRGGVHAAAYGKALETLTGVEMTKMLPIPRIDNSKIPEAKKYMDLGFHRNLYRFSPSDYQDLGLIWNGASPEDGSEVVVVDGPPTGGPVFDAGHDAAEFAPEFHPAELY
Protocol: The reactions were monitored spectrophotometrically at 460 and 420 nm, respectively. The substrates were dissolved in 20 mM Tris buffer, pH 8.0, and the assays were conducted at 70° C.

[2] = test system: T. brockianus catalase; type: biochemical, Thermus brockianus
[3] = test system: Archaeoglobus fulgidus recombinant catalase-peroxidase (putative perA gene); details: in words; cited from earlier work
[4] = test system: M. tuberculosis catalase or catalase-peroxidase; details: cited from earlier work
[5] = test system: Thermoascus aurantiacus catalase; details: cited from earlier work
[6] = test system: E. coli catalase or catalase-peroxidase; details: Table 3; cited from earlier work
[7] = target: Beef liver catalase (Bos taurus, UniProt P00432); details: Non-Immobilized Enzyme; inhibition observed at substrate concentrations above
[8] = test system: R. capsulatus catalase or catalase-peroxidase; details: Table 3; cited from earlier work
[9] = test system: Thermoleophilum album catalase; details: cited from earlier work
[10] = test system: A. nidulans catalase or catalase-peroxidase; details: cited from earlier work
[11] = test system: Vitreoscilla sp. catalase or catalase-peroxidase; details: Table 3; cited from earlier work
[12] = test system: Bacillus sp. catalase or catalase-peroxidase; details: cited from earlier work
[13] = test system: N. crassa catalase or catalase-peroxidase; details: cited from earlier work
[14] = target: T1, Thermus brockianus catalase (SEQ ID NO:2, SEQ ID NO:5); test: Michaelis-Menten kinetics of hydrogen peroxide decomposition (240 nm); type: biochemical; details: for Vmax: 20 mM Tris pH 8, 70° C.
Protocol: The buffer pH was adjusted to 8 at 70° C.
The constants were calculated by fitting the Michaelis-Menten equation to a plot of reaction velocity versus substrate concentration using nonlinear analysis (using GraFit Version 4, Erithacus Software Limited, Horley Surrey, U.K.). […] The enzyme was assayed as in Example I, except that it was preincubated with the inhibitor for 5 min prior to assay.
The turnover number was calculated assuming four active centers per catalase molecule.

[15] = substrate: OO; test: purified protein, by the assay type
[16] = Stability of immobilized catalase; type: physicochemical; details: 70° C.
Protocol: For beef liver catalase, the stability at 70° C. and pH 10 increased from no stability to being stable for 5 minutes. The A. niger catalase was stable for at least 6 hours under these conditions. The stability of immobilized T. brockianus catalase is assayed as done with immobilized beef liver catalase.

[17] = H2O2 concentration showing substrate inhibition

Chain of Beef liver catalase (P00432 whole entry): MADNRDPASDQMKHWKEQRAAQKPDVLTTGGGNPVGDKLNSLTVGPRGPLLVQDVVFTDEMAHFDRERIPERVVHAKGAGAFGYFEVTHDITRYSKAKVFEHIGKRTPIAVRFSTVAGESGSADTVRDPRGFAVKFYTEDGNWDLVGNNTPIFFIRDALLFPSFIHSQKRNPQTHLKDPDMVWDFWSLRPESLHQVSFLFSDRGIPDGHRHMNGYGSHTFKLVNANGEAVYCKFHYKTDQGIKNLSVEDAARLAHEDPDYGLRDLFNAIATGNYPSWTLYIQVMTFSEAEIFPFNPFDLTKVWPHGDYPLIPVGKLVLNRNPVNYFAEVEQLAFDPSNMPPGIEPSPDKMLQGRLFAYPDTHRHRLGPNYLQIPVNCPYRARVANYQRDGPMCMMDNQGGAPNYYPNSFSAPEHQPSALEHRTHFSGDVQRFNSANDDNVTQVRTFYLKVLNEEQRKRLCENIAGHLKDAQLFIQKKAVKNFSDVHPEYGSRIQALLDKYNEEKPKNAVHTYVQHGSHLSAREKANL

With `COc1cc(-c2ccc(N)c(OC)c2)ccc1N` [o-dianisidine] the peroxidase activity ([1]; substrate 0.5 mM, 460 nm) was “absence of peroxidase activity”.

In the case of `Nc1nc[nH]n1` [3-amino-1,2,4-triazole], the “inhibition of T. brockianus catalase” value [2] is given as “completely inhibited”, the “inhibition of T. brockianus catalase (in words, no concentration given)” value [2] is given as “inhibition” and the “inhibition by 3-amino-1,2,4-triazole” value [3] is given as “inhibited”.

For `OO` [hydrogen peroxide], the Km ([4]; Table 3) is given as 5.2 mM, the Kcat [4] is given as 10100 s⁻¹ and the “H2O2 Inhibition” value [5, 17] is given as 60 mM. For the same molecule, the Kcat ([5]; Table 3) was 107000 s⁻¹, the Km ([5]; Table 3) was 48 mM and the Kcat [6] was 16300 s⁻¹. The Km [6] was 3.9 mM, the “substrate inhibition concentration (footnote b)” value [7] was “^bApproximated value - inhibition observed at substrate concentrations above 100 mM” and the Km [8] was 4.2 mM. For the same molecule, the “H2O2 Inhibition” value [9, 17] was 20 mM, the Km ([9]; Table 3) was 15 mM and the Vmax ([9]; Table 3) was 2.3 mM/min/mg. For the same molecule, the “H2O2 Inhibition” value [10, 17] was 10 mM, the Kcat ([10]; Table 3) was 7170 s⁻¹ and the Km ([10]; Table 3) was 4.3 mM. For the same molecule, the Kcat [11] was 26700 s⁻¹, the Km [11] was 16 mM and the “H2O2 Inhibition” value [12, 17] was 30 mM. For the same molecule, the Km ([12]; Table 3) was 6.8 mM, the Km ([13]; Table 3) was 25 mM and the “H2O2 Inhibition” value ([13]; no inhibition observed for H2O2 concentrations up to 200 mM) was “None^b”. The Vmax ([14]; hydrogen peroxide 3 to 450 mM) was 20.3 mM/min·mg protein, the Vmax ([14]; Table 3) was 20.3 mM/min/mg and the “turnover number (kcat)” value ([14]; calculated assuming four active centers per catalase molecule, pH 8, 70° C.) was 6000 s⁻¹. For the same molecule, the “H2O2 Inhibition” value ([14]; no inhibition observed for H2O2 concentrations up to 450 mM, pH 8, 70° C.) was “no apparent substrate inhibition/inactivation; also recorded: not inhibited; also recorded: None^c”.

With `CCn1c(=NN=c2sc3cc(S(=O)(=O)O)ccc3n2CC)sc2cc(S(=O)(=O)O)ccc21` [2,2′-azino-bis(3-ethylbenzothiazoline-6-sulfonic acid)] the peroxidase activity ([1]; substrate 10 mM, 420 nm) was “absence of peroxidase activity”.

B1: Thermus brockianus catalase (SEQ ID NO:2, SEQ ID NO:5) (Thermus brockianus) (protein)
chain: T1 sequence (A0ABM7XHT8 6-291)
Molecule B1 has a Km ([15]; other: 20 mM Tris pH 8, 70° C., hydrogen peroxide 3 to 450 mM, pH 8.0, 70.0 °C) of 35.5 mM, a Km ([15]; other: Immobilized Enzyme, packed column, PBS pH 7.2, 20 mL/min, optimum temperature, pH 7.2) of 17 mM and a Km ([15]; other: Non-Immobilized Enzyme, optimum temperature and pH) of 35 mM.

B2: Beef Liver: beef liver catalase, commercial comparison enzyme (protein, UniProt P00432 2-527, looked up)
Catalase: ADNRDPASDQMKHWKEQRAAQKPDVLTTGGGNPVGDKLNSLTVGPRGPLLVQDVVFTDEMAHFDRERIPERVVHAKGAGAFGYFEVTHDITRYSKAKVFEHIGKRTPIAVRFSTVAGESGSADTVRDPRGFAVKFYTEDGNWDLVGNNTPIFFIRDALLFPSFIHSQKRNPQTHLKDPDMVWDFWSLRPESLHQVSFLFSDRGIPDGHRHMNGYGSHTFKLVNANGEAVYCKFHYKTDQGIKNLSVEDAARLAHEDPDYGLRDLFNAIATGNYPSWTLYIQVMTFSEAEIFPFNPFDLTKVWPHGDYPLIPVGKLVLNRNPVNYFAEVEQLAFDPSNMPPGIEPSPDKMLQGRLFAYPDTHRHRLGPNYLQIPVNCPYRARVANYQRDGPMCMMDNQGGAPNYYPNSFSAPEHQPSALEHRTHFSGDVQRFNSANDDNVTQVRTFYLKVLNEEQRKRLCENIAGHLKDAQLFIQKKAVKNFSDVHPEYGSRIQALLDKYNEEKPKNAVHTYVQHGSHLSAREKANL
With B2 the “stability, not immobilized” value ([16]; pH 10, before immobilization) was “no stability” and the “time stable, immobilized enzyme” value ([16]; pH 10, immobilized) was 5 min.
